This note sets out measurements from the supplement of paper PMC10307832.

Holding throughout (experiment): relative viability (nuclei count vs DMSO), 5 days (fraction); higher = more cells survive
Compound in the experiment “Dovitinib + Crizotinib”: CN1CCN(c2ccc3nc(-c4c(N)c5c(F)cccc5[nH]c4=O)[nH]c3c2)CC1 [Dovitinib] + C[C@@H](Oc1cc(-c2cnn(C3CCNCC3)c2)cnc1N)c1c(Cl)ccc(F)c1Cl [Crizotinib] (partner 1 µM)
The gist of the method:
(§1)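 Nuclei were stained with Hoechst during a one-step fixation (final 0.05% Triton X-100, 1% formaldehyde, 1 ug/ml Hoechst) carried out 5 days after dosing, then counted on 4× images. The cells, lung cancer lines in 1536-well plates, had been dosed by pin tool the day after seeding with one drug alone or a fixed anchor-drug dose plus five library-drug doses (not always all listed) in √10 steps. Relative viability is the nuclei count in treated wells divided by that in vehicle wells, and each value is the median of duplicate plates.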

Compound in the experiment “Dovitinib + OSI-027”: CN1CCN(c2ccc3nc(-c4c(N)c5c(F)cccc5[nH]c4=O)[nH]c3c2)CC1 [Dovitinib] + COc1cccc2cc(-c3nc([C@H]4CC[C@H](C(=O)O)CC4)n4ncnc(N)c34)[nH]c12 [OSI-027] (partner 0.5 µM)
The gist of the method:
as §1

Compound in the experiment “Dovitinib + Tozasertib”: CN1CCN(c2ccc3nc(-c4c(N)c5c(F)cccc5[nH]c4=O)[nH]c3c2)CC1 [Dovitinib] + Cc1cc(Nc2cc(N3CCN(C)CC3)nc(Sc3ccc(NC(=O)C4CC4)cc3)n2)n[nH]1 [Tozasertib] (partner 0.1 µM)
The method in brief:
as §1

Compound in the experiment “Dovitinib + Linsitinib”: CN1CCN(c2ccc3nc(-c4c(N)c5c(F)cccc5[nH]c4=O)[nH]c3c2)CC1 [Dovitinib] + C[C@]1(O)C[C@@H](c2nc(-c3ccc4ccc(-c5ccccc5)nc4c3)c3c(N)nccn32)C1 [Linsitinib] (partner 1 µM)
The method in brief: as §1

RERF-LC-KJ: the relative viability was 0.796 with Dovitinib + Crizotinib (first compound 0.02 µM); 0.817 in the experiment with Dovitinib + Crizotinib (first compound 0.06325 µM); 0.86 with Dovitinib + Crizotinib (first compound 0.2 µM); 0.815 in the experiment with Dovitinib + Crizotinib (first compound 0.6325 µM); 0.861 in the experiment with Dovitinib + Crizotinib (first compound 2 µM); 0.639 with Dovitinib + OSI-027 (first compound 0.02 µM). In addition, the relative viability was 0.623 with Dovitinib + OSI-027 (first compound 0.06325 µM); 0.653 with Dovitinib + OSI-027 (first compound 0.2 µM); 0.56 with Dovitinib + OSI-027 (first compound 0.6325 µM); 0.574 in the experiment with Dovitinib + OSI-027 (first compound 2 µM); 0.556 with Dovitinib + Tozasertib (first compound 0.02 µM); 0.369 in the experiment with Dovitinib + Tozasertib (first compound 0.06325 µM). Moreover, the relative viability with Dovitinib + Tozasertib (first compound 0.2 µM) came to 0.516; in the experiment with Dovitinib + Tozasertib (first compound 0.6325 µM), 0.518; in the experiment with Dovitinib + Tozasertib (first compound 2 µM), 0.511; in the experiment with Dovitinib + Linsitinib (first compound 0.02 µM), 0.89; with Dovitinib + Linsitinib (first compound 0.06325 µM), 0.934; in the experiment with Dovitinib + Linsitinib (first compound 0.2 µM) it was 0.938. The relative viability came to 0.838 with Dovitinib + Linsitinib (first compound 0.6325 µM) and 0.842 with Dovitinib + Linsitinib (first compound 2 µM).
Take LOU-NH91: the relative viability with Dovitinib + Crizotinib (first compound 0.02 µM) came to 0.767; with Dovitinib + Crizotinib (first compound 0.06325 µM), 0.75; with Dovitinib + Crizotinib (first compound 0.2 µM), 0.729; in the experiment with Dovitinib + Crizotinib (first compound 0.6325 µM), 0.74; in the experiment with Dovitinib + Crizotinib (first compound 2 µM), 0.798; with Dovitinib + OSI-027 (first compound 0.02 µM), 0.786. Moreover, the relative viability turned out to be 0.662 with Dovitinib + OSI-027 (first compound 0.06325 µM); 0.731 in the experiment with Dovitinib + OSI-027 (first compound 0.2 µM); 0.817 with Dovitinib + OSI-027 (first compound 0.6325 µM); 0.721 with Dovitinib + OSI-027 (first compound 2 µM); 0.708 with Dovitinib + Tozasertib (first compound 0.02 µM); 0.659 in the experiment with Dovitinib + Tozasertib (first compound 0.06325 µM). Besides, the relative viability with Dovitinib + Tozasertib (first compound 0.2 µM) was 0.611; with Dovitinib + Tozasertib (first compound 0.6325 µM), 0.678; with Dovitinib + Tozasertib (first compound 2 µM) it was 0.776; with Dovitinib + Linsitinib (first compound 0.02 µM), 0.984; with Dovitinib + Linsitinib (first compound 0.06325 µM) it was 0.915; with Dovitinib + Linsitinib (first compound 0.2 µM), 0.968. The relative viability amounted to 1 with Dovitinib + Linsitinib (first compound 0.6325 µM) and 1.05 with Dovitinib + Linsitinib (first compound 2 µM).
Consider NCI-H2347, for which the relative viability with Dovitinib + Crizotinib (first compound 0.02 µM) came out at 0.784; with Dovitinib + Crizotinib (first compound 0.06325 µM) it was 0.653; with Dovitinib + Crizotinib (first compound 0.2 µM), 0.79; with Dovitinib + Crizotinib (first compound 0.6325 µM) it was 0.961; in the experiment with Dovitinib + Crizotinib (first compound 2 µM), 0.676; with Dovitinib + OSI-027 (first compound 0.02 µM), 0.568. Further, the relative viability in the experiment with Dovitinib + OSI-027 (first compound 0.06325 µM) came to 0.265; with Dovitinib + OSI-027 (first compound 0.2 µM), 0.471; with Dovitinib + OSI-027 (first compound 0.6325 µM) it was 0.545; in the experiment with Dovitinib + OSI-027 (first compound 2 µM), 0.529; with Dovitinib + Tozasertib (first compound 0.02 µM) it was 0.523; with Dovitinib + Tozasertib (first compound 0.06325 µM), 0.478. Further, the relative viability came out at 0.503 with Dovitinib + Tozasertib (first compound 0.2 µM); 0.619 with Dovitinib + Tozasertib (first compound 0.6325 µM); 0.62 in the experiment with Dovitinib + Tozasertib (first compound 2 µM); 0.997 in the experiment with Dovitinib + Linsitinib (first compound 0.02 µM); 0.892 with Dovitinib + Linsitinib (first compound 0.06325 µM); 0.953 in the experiment with Dovitinib + Linsitinib (first compound 0.2 µM). Also, the relative viability with Dovitinib + Linsitinib (first compound 0.6325 µM) worked out at 0.978; with Dovitinib + Linsitinib (first compound 2 µM), 0.969.
Consider NCI-H2126, for which the relative viability with Dovitinib + Crizotinib (first compound 0.02 µM) stood at 1.03; with Dovitinib + Crizotinib (first compound 0.06325 µM) it was 1.04; with Dovitinib + Crizotinib (first compound 0.2 µM), 1.05; with Dovitinib + Crizotinib (first compound 0.6325 µM), 1.02; with Dovitinib + Crizotinib (first compound 2 µM), 1.08; with Dovitinib + OSI-027 (first compound 0.02 µM), 0.74. For the same cell line, the relative viability with Dovitinib + OSI-027 (first compound 0.2 µM) is 0.855; with Dovitinib + OSI-027 (first compound 0.6325 µM), 0.699; with Dovitinib + OSI-027 (first compound 2 µM) it was 0.638; with Dovitinib + Tozasertib (first compound 0.02 µM), 0.833; in the experiment with Dovitinib + Tozasertib (first compound 0.06325 µM) it was 0.807; with Dovitinib + Tozasertib (first compound 0.2 µM), 0.951. Besides, the relative viability stood at 0.794 with Dovitinib + Tozasertib (first compound 0.6325 µM); 0.833 with Dovitinib + Tozasertib (first compound 2 µM); 0.697 with Dovitinib + Linsitinib (first compound 0.02 µM); 0.691 in the experiment with Dovitinib + Linsitinib (first compound 0.06325 µM); 0.748 with Dovitinib + Linsitinib (first compound 0.2 µM); 0.747 with Dovitinib + Linsitinib (first compound 0.6325 µM). Also, in the experiment with Dovitinib + Linsitinib (first compound 2 µM), the relative viability was 0.696.
